Measured values from US9328122B2, “7-substituted Hanfangichin B derivative, and preparation method and use thereof” (HANGZHOU BENSHENG PHARMACEUTICAL CO., LTD., priority 2012, dated 2016).
≈ marks a conversion by molar mass, not a printed value. Where a name gives a salt, the structure may show the parent alone.

Assays:
[1] = tested on: Hep G2 transplanted tumor; experiment: Transplanted tumor of liver cancer in nude mice; conditions: BS-FC-308 35 mg/kg/time, erlotinib hydrochloride 20 mg/kg/time
Protocol: Liver cancer cell lines: Hep G2 (human liver cancer cell line);
Animal: BALBc nude mice (immunodeficient mice), 8 weeks, female, purchased from Shanghai Laboratory Animal Center of Chinese Academy of Sciences, China.
Under sterile conditions, the Hep G2 cells in the logarithmic growth phase were respectively collected and injected subcutaneously in an amount of 2.3×10^7/0.2 mL/nude mice (cell viability >90%) into the left subaxillary of the nude mice, thus establishing a transplanted tumor model of liver cancer in nude mice. The mice were administered from the second day after inoculation. The experimental group was intragastrically administered with the experimentally designed amount, the negative control group was intragastrically administered with sterile water, and the positive control group was intragastrically administered with erlotinib hydrochloride. Each mouse was intragastrically administered in 0.4 ml each time and 3 times a day, at 8:00, 14:00 and 20:00, with 6-hour intervals. The administrations were successive for 10 days. The day before administration was deemed as Day 0 and the weight and tumor size of the mice were determined every 5 days to produce a dynamic plot on weight and tumor growth (the experimental results are presented as mean±SD). On Day 28, the mice were sacrificed and the tumors were taken out and weighed. The tumor inhibition rate (%) after the effect of the medicament was calculated based on a tumor inhibition rate of the control group being zero.
The experimental data for each group were analyzed by using the One-way ANOVA method in the SPSS 19.0 statistical software and were compared with the control group for significance of difference.

[2] = tested on: K562/ADR (K562adr, drug-resistant chronic myeloid leukemia) cells; experiment: MTT cell growth inhibition, leukemia cells; assay type: cell-based; conditions: Homo sapiens, K562/Adr, 72 h
From the text: (§1) Leukemia cell lines: leukemia cell lines: K562adr (drug-resistant, chronic myeloid leukemia, CML), NB4 (acute promyelocytic leukemia, AML), Kasumi-1 (acute myeloid leukemia M2 type, AML-M2), Jurkat (acute lymphoblastic leukemia, ALL), all of which were donated by Cancer Research Institute of Zhejiang University, China; and H9 (acute lymphoblastic leukemia, ALL), which was purchased from China Center for Type Culture Collection.
(§2) Reagents: The standard sample of fangchinoline (FAN) was purchased from Ci Yuan Biotechnology Co., Ltd., Shaanxi, China; and the 7-substituted fangchinoline derivatives according to the present invention.
(§3) 6000 well-growing leukemia cells were obtained and inoculated into wells of a 96-well cell culture plate. The culture medium was a RPMI-1640 cell culture medium containing 10% fetal bovine serum. After adding the 7-substituted fangchinoline derivatives of different concentrations the next day and mixing uniformly, the plate was placed in a carbon dioxide cell incubator (5% CO2) at 37° C. and incubating for 72 hours. Then the viable cell concentration was determined by the MTT method.

[3] = tested on: NB4 (acute promyelocytic leukemia) cells; experiment: MTT cell growth inhibition, leukemia cells; assay type: cell-based; conditions: Homo sapiens, 72 h
From the text: as §1, §2, §3

[4] = tested on: H9 (acute lymphoblastic leukemia) cells; experiment: MTT cell growth inhibition, leukemia cells; assay type: cell-based, human; conditions: Homo sapiens, 72 h
From the text: as §1, §2, §3

[5] = tested on: Jurkat (acute lymphoblastic leukemia) cells; experiment: MTT cell growth inhibition, leukemia cells; assay type: cell-based, human; conditions: Homo sapiens, Jurkat, 72 h
From the text: as §1, §2, §3

[6] = tested on: Kasumi-1 (acute myeloid leukemia M2 type) cells; experiment: MTT cell growth inhibition, leukemia cells; assay type: cell-based, human; conditions: Homo sapiens, Kasumi 1, 72 h
From the text: as §1, §2, §3

[7] = tested on: RPMI 8226 (multiple myeloma) cells; experiment: MTT cell growth inhibition, multiple myeloma cells; assay type: cell-based, human; conditions: Homo sapiens, RPMI-8226, 72 h
Protocol: Myeloma cell lines: RPMI8226 (multiple myeloma), purchased from Fuxiang Bio-tech Co. Ltd., Shanghai, China.
as §3, with “well-growing” for “well-growing leukemia”, “incubated” for “incubating”

[8] = tested on: CNE (nasopharyngeal carcinoma) cells; experiment: MTT cell growth inhibition, solid tumor cells; assay type: cell-based, human; conditions: Homo sapiens, 72 h
From the text: (§4) Hep-2 (laryngeal carcinoma), A549 (human lung cancer), CaES-17 (esophageal cancer cell), PC-3 (prostate cancer), CNE (nasopharyngeal carcinoma cell) and SK-OV-3 (ovarian cancer cell), all of which were purchased from China Center For Type Culture Collection; RKO (human colon adenocarcinoma cell), MGC-803 (human gastric cancer cell), MG-63 (osteosarcoma), and U87-MG (malignant glioma cell), all of which were purchased from Fuxiang Bio-tech Co. Ltd., Shanghai, China; PANC-1 (pancreatic cancer), Becap37 (human breast cancer cell), Hela (human cervical cancer cell) and Hep G2 (human liver cancer cell), all of which were donated by Cancer Research Institute of Zhejiang University, China.
as §3, with “human solid tumor” for “leukemia”, “DMEM High Glucose” for “a RPMI-1640”, “serum. The plate was placed in a carbon dioxide cell incubator (5% CO2) at 37° C. and incubated for 24 hours.” for “serum.”, “added with” for “adding the”, “concentration” for “concentrations the next day”, “incubated” for “incubating”

[9] = tested on: CaEs-17 (esophageal cancer) cells; experiment: MTT cell growth inhibition, solid tumor cells; assay type: cell-based, human; conditions: Homo sapiens, CaEs17, 72 h
From the text: as §4
as §3, with “human solid tumor” for “leukemia”, “DMEM High Glucose” for “a RPMI-1640”, “serum. The plate was placed in a carbon dioxide cell incubator (5% CO2) at 37° C. and incubated for 24 hours.” for “serum.”, “added with” for “adding the”, “concentration” for “concentrations the next day”, “incubated” for “incubating”

[10] = tested on: PANC-1 (pancreatic cancer) cells; experiment: MTT cell growth inhibition, solid tumor cells; assay type: cell-based, human; conditions: Homo sapiens, PANC-1, 72 h
From the text: as §4
as §3, with “human solid tumor” for “leukemia”, “DMEM High Glucose” for “a RPMI-1640”, “serum. The plate was placed in a carbon dioxide cell incubator (5% CO2) at 37° C. and incubated for 24 hours.” for “serum.”, “added with” for “adding the”, “concentration” for “concentrations the next day”, “incubated” for “incubating”

[11] = tested on: PC-3 (prostate cancer) cells; experiment: MTT cell growth inhibition, solid tumor cells; assay type: cell-based, human; conditions: Homo sapiens, 72 h
From the text: as §4
as §3, with “human solid tumor” for “leukemia”, “DMEM High Glucose” for “a RPMI-1640”, “serum. The plate was placed in a carbon dioxide cell incubator (5% CO2) at 37° C. and incubated for 24 hours.” for “serum.”, “added with” for “adding the”, “concentration” for “concentrations the next day”, “incubated” for “incubating”

[12] = tested on: SK-OV-3 (ovarian cancer) cells; experiment: MTT cell growth inhibition, solid tumor cells; assay type: cell-based, human; conditions: Homo sapiens, SK-OV-3, 72 h
From the text: as §4
as §3, with “human solid tumor” for “leukemia”, “DMEM High Glucose” for “a RPMI-1640”, “serum. The plate was placed in a carbon dioxide cell incubator (5% CO2) at 37° C. and incubated for 24 hours.” for “serum.”, “added with” for “adding the”, “concentration” for “concentrations the next day”, “incubated” for “incubating”

[13] = tested on: A549 (human lung cancer) cells; experiment: MTT cell growth inhibition, solid tumor cells; assay type: cell-based; conditions: Homo sapiens, A549, 72 h
From the text: as §4
as §3, with “human solid tumor” for “leukemia”, “DMEM High Glucose” for “a RPMI-1640”, “serum. The plate was placed in a carbon dioxide cell incubator (5% CO2) at 37° C. and incubated for 24 hours.” for “serum.”, “added with” for “adding the”, “concentration” for “concentrations the next day”, “incubated” for “incubating”

[14] = tested on: Becap-37 (human breast cancer) cells; experiment: MTT cell growth inhibition, solid tumor cells; assay type: cell-based; conditions: Homo sapiens, 72 h
From the text: as §4
as §3, with “human solid tumor” for “leukemia”, “DMEM High Glucose” for “a RPMI-1640”, “serum. The plate was placed in a carbon dioxide cell incubator (5% CO2) at 37° C. and incubated for 24 hours.” for “serum.”, “added with” for “adding the”, “concentration” for “concentrations the next day”, “incubated” for “incubating”

[15] = tested on: Hela (human cervical cancer) cells; experiment: MTT cell growth inhibition, solid tumor cells; assay type: cell-based; conditions: Homo sapiens, HeLa, 72 h
From the text: as §4
as §3, with “human solid tumor” for “leukemia”, “DMEM High Glucose” for “a RPMI-1640”, “serum. The plate was placed in a carbon dioxide cell incubator (5% CO2) at 37° C. and incubated for 24 hours.” for “serum.”, “added with” for “adding the”, “concentration” for “concentrations the next day”, “incubated” for “incubating”

[16] = tested on: Hep G2 (human liver cancer) cells; experiment: MTT cell growth inhibition, solid tumor cells; assay type: cell-based; conditions: Homo sapiens, HepG2, 72 h
From the text: as §4
as §3, with “human solid tumor” for “leukemia”, “DMEM High Glucose” for “a RPMI-1640”, “serum. The plate was placed in a carbon dioxide cell incubator (5% CO2) at 37° C. and incubated for 24 hours.” for “serum.”, “added with” for “adding the”, “concentration” for “concentrations the next day”, “incubated” for “incubating”

[17] = tested on: Hep-2 (laryngeal carcinoma) cells; experiment: MTT cell growth inhibition, solid tumor cells; assay type: cell-based; conditions: Homo sapiens, HEp-2, 72 h
From the text: as §4
as §3, with “human solid tumor” for “leukemia”, “DMEM High Glucose” for “a RPMI-1640”, “serum. The plate was placed in a carbon dioxide cell incubator (5% CO2) at 37° C. and incubated for 24 hours.” for “serum.”, “added with” for “adding the”, “concentration” for “concentrations the next day”, “incubated” for “incubating”

[18] = tested on: MG-63 (osteosarcoma) cells; experiment: MTT cell growth inhibition, solid tumor cells; assay type: cell-based; conditions: Homo sapiens, MG-63, 72 h
From the text: as §4
as §3, with “human solid tumor” for “leukemia”, “DMEM High Glucose” for “a RPMI-1640”, “serum. The plate was placed in a carbon dioxide cell incubator (5% CO2) at 37° C. and incubated for 24 hours.” for “serum.”, “added with” for “adding the”, “concentration” for “concentrations the next day”, “incubated” for “incubating”

[19] = tested on: MGC-803 (human gastric cancer) cells; experiment: MTT cell growth inhibition, solid tumor cells; assay type: cell-based; conditions: MGC-803, 72 h
From the text: as §4
as §3, with “human solid tumor” for “leukemia”, “DMEM High Glucose” for “a RPMI-1640”, “serum. The plate was placed in a carbon dioxide cell incubator (5% CO2) at 37° C. and incubated for 24 hours.” for “serum.”, “added with” for “adding the”, “concentration” for “concentrations the next day”, “incubated” for “incubating”

[20] = tested on: RKO (human colon adenocarcinoma) cells; experiment: MTT cell growth inhibition, solid tumor cells; assay type: cell-based; conditions: Homo sapiens, 72 h
From the text: as §4
as §3, with “human solid tumor” for “leukemia”, “DMEM High Glucose” for “a RPMI-1640”, “serum. The plate was placed in a carbon dioxide cell incubator (5% CO2) at 37° C. and incubated for 24 hours.” for “serum.”, “added with” for “adding the”, “concentration” for “concentrations the next day”, “incubated” for “incubating”

[21] = tested on: U87-MG (malignant glioma) cells; experiment: MTT cell growth inhibition, solid tumor cells; assay type: cell-based; conditions: Homo sapiens, U-87 MG, 72 h
From the text: as §4
as §3, with “human solid tumor” for “leukemia”, “DMEM High Glucose” for “a RPMI-1640”, “serum. The plate was placed in a carbon dioxide cell incubator (5% CO2) at 37° C. and incubated for 24 hours.” for “serum.”, “added with” for “adding the”, “concentration” for “concentrations the next day”, “incubated” for “incubating”

[22] = tested on: human colon cancer cell line LoVo; conditions: LoVo tumor-bearing nude mice, 60 days; cited from earlier work

In the case of `C#Cc1cccc(Nc2ncnc3cc(OCCOC)c(OCCOC)cc23)c1` [Erlotinib hydrochloride, reference compound], the Mass of tumor ([1]; Hep G2 transplanted tumor, Day 28, intragastric 3 times a day for 10 days) is reported as 839 ± 270.62 mg, the “Tumor Inhibition rate” value ([1]; Hep G2 transplanted tumor, Day 28, intragastric 3 times a day for 10 days, control = 0) is reported as 34.5% and the “Body Weight (g) Initial” value ([1]; Hep G2 tumor nude mice, before administration, intragastric 3 times a day, mean±SD) is reported as 21.4 ± 0.26 g. The “Body Weight (g) Final” value ([1]; Hep G2 tumor nude mice, final, intragastric 3 times a day for 10 days, mean±SD) was 20.4 ± 1.72 g.

Molecule `COc1ccc2cc1Oc1ccc(cc1)C[C@H]1c3cc(c(OC)cc3CCN1C)Oc1c(O)c(OC)cc3c1[C@H](C2)N(C)CC3` [FAN, Fangchinoline, reference compound] has an IC50 [2] of 0.36 µg/mL (≈ 0.591 µM), an IC90 [2] of 4.13 µg/mL (≈ 6.78 µM) and an IC50 [3] of 0.58 µg/mL (≈ 0.953 µM). The IC90 [3] was 2.59 µg/mL (≈ 4.25 µM), the IC50 [4] was 2.4 µg/mL (≈ 3.94 µM) and the IC90 [4] was 6.6 µg/mL (≈ 10.8 µM). It also gave an IC50 [5] of 1.73 µg/mL (≈ 2.84 µM), an IC90 [5] of 5.25 µg/mL (≈ 8.62 µM) and an IC50 [6] of 1.11 µg/mL (≈ 1.82 µM). It also gave an IC90 [6] of 4.11 µg/mL (≈ 6.75 µM), an IC50 [7] of 0.04 µg/mL (≈ 0.0657 µM) and an IC90 [7] of 0.5 µg/mL (≈ 0.821 µM). For the same molecule, the IC50 [8] was 2.4 µg/mL (≈ 3.94 µM), the IC90 [8] was 5.7 µg/mL (≈ 9.36 µM) and the IC50 [9] was 1.94 µg/mL (≈ 3.19 µM). It also gave an IC90 [9] of 8.98 µg/mL (≈ 14.8 µM), an IC50 [10] of 3.14 µg/mL (≈ 5.16 µM) and an IC90 [10] of 11.6 µg/mL (≈ 19.1 µM). The IC50 [11] was 4.08 µg/mL (≈ 6.7 µM), the IC90 [11] was 7.64 µg/mL (≈ 12.6 µM) and the IC50 [12] was 3.61 µg/mL (≈ 5.93 µM). The IC90 [12] was 14.5 µg/mL (≈ 23.8 µM), the IC50 [13] was 3.26 µg/mL (≈ 5.36 µM) and the IC90 [13] was 9.81 µg/mL (≈ 16.1 µM). The IC50 [14] was 1.79 µg/mL (≈ 2.94 µM), the IC90 [14] was 6.2 µg/mL (≈ 10.2 µM) and the IC50 [15] was 1.96 µg/mL (≈ 3.22 µM). It also gave an IC90 [15] of 6.12 µg/mL (≈ 10.1 µM), an IC50 [16] of 1.81 µg/mL (≈ 2.97 µM) and an IC90 [16] of 5.23 µg/mL (≈ 8.59 µM). The IC50 [17] was 3.6 µg/mL (≈ 5.91 µM), the IC90 [17] was 10 µg/mL (≈ 16.5 µM) and the IC50 [18] was 1.7 µg/mL (≈ 2.79 µM). The IC90 [18] was 3.7 µg/mL (≈ 6.08 µM), the IC50 [19] was 1.08 µg/mL (≈ 1.77 µM) and the IC90 [19] was 6.42 µg/mL (≈ 10.5 µM). For the same molecule, the IC50 [20] was 0.92 µg/mL (≈ 1.51 µM), the IC90 [20] was 3.11 µg/mL (≈ 5.11 µM) and the IC50 [21] was 1.12 µg/mL (≈ 1.84 µM). The IC90 [21] was 3.79 µg/mL (≈ 6.23 µM) and the “adverse reactions during the administration” value [22] was “do not exhibit adverse reactions”.
